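Cultured in 96-well plates, cells were exposed to test compound for 48 hours across five concentrations. Abbreviation: GI50, concentration required for 50% inhibition of growth.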 The source made the active and inactive calls. No stated cut-off is given here; in the data, active = GI50 up to about 1.1 µM and inactive = higher.
What was measured:
Assay in all cases: inhibition of tumour cell growth, NCI panel, 48 h
U-251 = tested on: U-251
MDA-MB-231 = tested on: MDA-MB-231
NCI-H460 = tested on: NCI-H460
MDA-MB-435 = tested on: MDA-MB-435
CCRF-CEM = tested on: CCRF-CEM
T47D = tested on: T47D
PC-3 = tested on: PC-3
M14 = tested on: M14
A498 = tested on: A498
RXF 393 = tested on: RXF 393
Hs-578T = tested on: Hs-578T
NCI-H23 = tested on: NCI-H23
HOP-92 = tested on: HOP-92
HT-29 = tested on: HT-29
UO-31 = tested on: UO-31
NCI-H522 = tested on: NCI-H522
HCC 2998 = tested on: HCC 2998
SNB-75 = tested on: SNB-75
UACC-62 = tested on: UACC-62
MCF7 = tested on: MCF7

Measured: GI50

COC(=O)[C@@H]1CN(C(C)=O)C(=O)N1C(=O)OCc1ccccc1
inactive: U-251 > 100 µM | MDA-MB-231 > 100 µM | NCI-H460 > 100 µM | MDA-MB-435 > 100 µM | CCRF-CEM > 100 µM | T47D > 100 µM | PC-3 > 100 µM | M14 > 100 µM | A498 > 100 µM | RXF 393 > 100 µM | Hs-578T > 100 µM | NCI-H23 > 100 µM | HOP-92 > 100 µM | HT-29 > 100 µM | UO-31 > 100 µM | NCI-H522 > 100 µM | HCC 2998 > 100 µM

COc1ccc(/C(Cl)=C/c2ccc(Cl)c(Cl)c2)cc1
inactive: SNB-75 28.5 µM | U-251 21.5 µM | UACC-62 24.3 µM | CCRF-CEM 21.9 µM | M14 33.2 µM | A498 24.9 µM | RXF 393 15.2 µM | NCI-H23 19 µM | HOP-92 30.1 µM | HT-29 18.3 µM | UO-31 26.5 µM | NCI-H522 16.3 µM | HCC 2998 19.8 µM

Nc1nc(SCc2ccccc2Cl)c2ncn(C3OC(CO)C(O)C3O)c2n1 (configuration not stated)
inactive: SNB-75 23.3 µM | U-251 > 100 µM | NCI-H460 > 100 µM | UACC-62 72.3 µM | CCRF-CEM > 100 µM | M14 > 100 µM | A498 87.3 µM | RXF 393 28.6 µM | NCI-H23 > 100 µM | HOP-92 98.2 µM | HT-29 > 100 µM | UO-31 29.1 µM | NCI-H522 30.1 µM | HCC 2998 > 100 µM

N#C/C(C(=O)NCc1ccccc1)=C(/N)N1CCCC1
inactive: U-251 > 100 µM | MDA-MB-231 > 100 µM | NCI-H460 > 100 µM | UACC-62 > 100 µM | MDA-MB-435 > 100 µM | CCRF-CEM > 100 µM | T47D > 100 µM | PC-3 > 100 µM | M14 > 100 µM | A498 94.8 µM | RXF 393 > 100 µM | Hs-578T > 100 µM | NCI-H23 > 100 µM | HOP-92 97.7 µM | HT-29 > 100 µM | UO-31 46.3 µM | NCI-H522 > 100 µM | HCC 2998 > 100 µM

O=C(NC(CS)C(=O)O)c1cccc2c(=O)c3ccccc3[nH]c12 (configuration not stated)
inactive: SNB-75 > 100 µM | U-251 > 100 µM | MDA-MB-231 > 100 µM | UACC-62 > 100 µM | MDA-MB-435 > 100 µM | MCF7 > 100 µM | PC-3 > 100 µM | M14 > 100 µM | A498 > 100 µM | Hs-578T > 100 µM | NCI-H23 > 100 µM | HOP-92 > 100 µM | HT-29 83.4 µM | UO-31 > 100 µM | NCI-H522 47 µM

CSc1cnc2ccccc2c1Sc1c[nH]c2ccccc2c1=O
inactive: SNB-75 2.79 µM | U-251 6.49 µM | NCI-H460 6.75 µM | UACC-62 4.03 µM | CCRF-CEM 4.52 µM | M14 6.76 µM | A498 12.4 µM | RXF 393 13.7 µM | NCI-H23 11.3 µM | HOP-92 8.39 µM | HT-29 3.72 µM | UO-31 14 µM | NCI-H522 1.93 µM | HCC 2998 12.9 µM

Cc1ccc(C(=O)O/N=C2/CCCCC2CN(C)C)cc1 (configuration not stated)
inactive: SNB-75 > 100 µM | U-251 > 100 µM | NCI-H460 > 100 µM | UACC-62 > 100 µM | CCRF-CEM > 100 µM | M14 > 100 µM | A498 > 100 µM | RXF 393 > 100 µM | NCI-H23 > 100 µM | HOP-92 > 100 µM | HT-29 > 100 µM | UO-31 > 100 µM | NCI-H522 > 100 µM | HCC 2998 > 100 µM

CO/N=C(\C(=O)Nn1cn[n+](CC(=O)[O-])c1)c1csc(N)n1
inactive: SNB-75 9.25 µM | MDA-MB-231 > 10 µM | NCI-H460 > 10 µM | UACC-62 > 10 µM | CCRF-CEM > 10 µM | T47D > 10 µM | MCF7 > 10 µM | M14 > 10 µM | NCI-H23 > 10 µM | HOP-92 > 10 µM | HT-29 > 10 µM | HCC 2998 > 10 µM

COc1ccc2c(c1)OCC1Cc3cccc(OC)c3OC21 (configuration not stated)
inactive: U-251 > 100 µM | MDA-MB-231 60.7 µM | UACC-62 71.1 µM | MDA-MB-435 28.7 µM | CCRF-CEM 40 µM | T47D 30.1 µM | PC-3 35.6 µM | M14 96.2 µM | A498 > 100 µM | NCI-H23 58.3 µM | HOP-92 > 100 µM | HT-29 72.8 µM | UO-31 30.3 µM | NCI-H522 55.6 µM | HCC 2998 93.3 µM

Source: ChEMBL document CHEMBL1201862, “PubChem BioAssay data set” (2004)
